Measurements: paper PMC4568418, “Identification of natural inhibitors of Entamoeba histolytica cysteine synthase from microbial secondary metabolites” (Frontiers in Microbiology, 2015)
Where two headings read alike, the source gives them in different places.

Key:
[1] = Cytotoxicity against MRC-5 cells (WST-8); format: cell-based; settings: human fibroblast cells MRC-5, 2 days
Method: (§1) Human fibroblast cells, MRC-5, were plated on 96-well flat bottom plates at a density of 1.5 × 10^4 cells/well with 100 μl of MEM medium (Life Technologies, Grand Islands, NY, USA) containing 10% fetal bovine serum (Hana-nesco Bio, Tokyo, Japan) and 1% penicillin-streptomycin (Life Technologies) and incubated at 37°C with 5% CO2 for 2 days. Test compounds in 5 μl of 50% DMSO–H2O and 100 μl of MEM medium were mixed and added to each well. After 2 days cultivation at 37°C with 5% CO2, cell density and morphological changes were observed under a microscope. After observation, 10 μl of WST-8 solution (Dojindo, Kumamoto, Japan) was added to the cells and the plate was incubated at 37°C with 5% CO2 for 2 h. Then, absorbance at 450 nm was measured by spectrophotometer (SH-9000Lab, Corona Electric). Cytotoxicity was measured in duplicate. Staurosporine (our product, in Kitasato Natural Products Library) was used as a positive (cytotoxic) compound. […]; 0.075 to 10 μg/ml for deacetylkinamycin C, deoxyfrenolicin, nanaomycin A, and naphthacemycin A9; 3.1 to 200 μg/ml for tetracycline and patulin; 9.4 to 75 μg/ml for exophillic acid. IC50 values were calculated by the equation described in the reference ([Arita-Morioka et al., 2015]).

EhCS3 = EhCS3 (Entamoeba histolytica, UniProt Q401L7); experiment: CS inhibitory activity, recombinant EhCS3 (acid-ninhydrin cysteine detection); format: biochemical
Method: (§2) The E. coli BL21 (DE3) cell introduced pET-EhCS (CS1, CS3) construct was used for protein expression. Each EhCSs protein was expressed by 1 mM isopropyl β-D-thiogalactopyranoside induction for 12 h at 30°C. After induction, the E. coli cell was harvested and re-suspended in the lysis buffer (50 mM Tris-HCl, pH 8.0, and 300 mM NaCl) containing 0.5 mM phenylmethylsulfonyl fluoride. The suspension was sonicated and centrifuged at 24,000 ×g for 30 min at 4°C. The histidine-tagged rEhCS proteins were purified from the supernatant fraction using a Ni^2+-NTA column and tagged proteins were eluted with 100–200 mM imidazole in 50 mM Tris-HCl, pH 8.0, and 300 mM NaCl. […].
(§3) For measurement of CS inhibitory activity, 10 μl of sample solution [dimethylsulfoxide (DMSO)/H2O = 1/1 solution] and 30 μl of reaction mixture, composed of 2 μl of 50 mM O-acetyL-L-serine, 2 μl of 50 mM Na2S, 12.5 μl of 200 mM Tris-HCl (pH 7.5), and 13.5 μl of water, was poured into each well of a flat-bottom 96-well plate. After 10 μl of enzyme solution (containing 0.1 μg of rEhCS1 or rEhCS3 in H2O) was added to each well, plates were incubated for 15 min at 37°C. The final concentrations of reagents in each well are; 2 mM O-acetyL-L-serine, 2 mM Na2S, and 50 mM Tris-HCl. The enzymatic reaction was stopped by adding 50 μl of acetic acid (>99.9%), and subsequently the reaction for cysteine detection was started by adding 50 μl of acid-ninhydrin reagent ([Gaitonde, 1967]). The mixture in each well was transferred to a 96-well PCR plate and heated at 95°C for 10 min. After the plate was cooled on ice, the mixture was transferred into a flat-bottom 96-well plate filled with 100 μl of ethanol (EtOH). Absorbance at 560 nm was measured by spectrophotometer (SH-9000Lab, Corona Electric, Ibaraki, Japan). […] To determine whether the sample interferes the acid-ninhydrin reagent reaction, 10 μl of sample solution, 10 μl of water, and 30 μl of 1 mM cysteine solution (cysteine hydrochloric acid salt in water) were mixed in a well of 96-well microtiter plate, and then 50 μl of acetic acid (>99.9%) and 50 μl of acid-ninhydrin reagent were added. The mixture was treated and measured the absorbance at 560 nm as above mentioned to check the effect of the sample to the color reaction.
(§4) Each 5 μl of DMSO solution (1 mg/ml, final concentration 100 μg/ml) of 316 library compounds and 5 μl of water (total 10 μl of DMSO/H2O = 1/1 solution per well) were poured into each well of a 96-well microtiter plate to screen for CS inhibitors. For screening microbial broths, 10 μl of the individual broth extract samples (50% EtOH solution) were poured into each well of a 96-well microtiter plate and dried up in vacuo. After drying, 10 μl of DMSO/H2O = 1/1 solution was added and dissolved. Samples showing more than 50% inhibitory activity and having no inhibitory activities against acid ninhydrin reaction were selected for further evaluation. The inhibition values were measured in duplicate or triplicate. […]; 2.0 to 250 μg/ml for deacetylkinamycin C, deoxyfrenolicin, nanaomycin A, tetracycline and patulin; 1.5 to 200 μg/ml for naphthacemycin A9; 3.1 to 400 μg/ml for xanthofulvin, terreinol and citromycetin; 0.06 to 200 μg/ml for exophillic acid.

[2] = system: E. histolytica clonal strain HM-1:IMSS cl6 trophozoites; experiment: In vitro anti-amebic activity against trophozoites (WST-1 viability); settings: 48 h
Method: Trophozoites were harvested in 3–4 days after inoculation of 1/30 to 1/12 of the total culture volume. After the cultures were chilled on ice for 5 min, trophozoites were collected by centrifugation at 500 ×g for 10 min at 4°C and washed twice with BI-S-33 medium. The obtained trophozoites were suspended in BI-S-33 medium and approximately 1 × 10^4 trophozoites in 200 μl of BI-S-33 medium were poured into each well of a 96-well plate and incubated for 2 h. Subsequently, the medium was removed and 200 μl of BI-S-33 medium or cysteine-deprived BI-S-33 medium containing 1% (v/v) penicillin/streptomycin (Life Technologies) together with test compounds (final concentrations; 0.1, 1, 10, 100 μg/ml for kerriamycin B, kerriamycin C, aggreticin, and xanthofulvin; 0.1, 1, 10, 50, 100 μg/ml for the other compounds) was added to each well and incubated under anaerobic conditions for 48 h. After incubation, the medium was removed and 90 μl of pre-warmed Opti-MEM I (Life Technologies) and 10 μl of WST-1 solution (Dojindo) were added to each well. Viability of trophozoites was detected with absorbance at 450 nm (SH-9000Lab, Corona Electric). Cytotoxicity was measured in triplicate. […] Metronidazole (Sigma–Aldrich, MO, USA) was used as positive control.

EhCS1 = EhCS1 (Entamoeba histolytica, UniProt O15570); experiment: CS inhibitory activity, recombinant EhCS1 (acid-ninhydrin cysteine detection); format: biochemical
Method: as §2, §3, §4

semaphorin = system: semaphorin; design: method as in Kumagai et al., 2003; settings: ref Kumagai et al., 2003; cited from earlier work
MRC-5 cells = experiment: Cytotoxicity against MRC-5 cells (WST-8); format: cell-based; settings: human fibroblast cells MRC-5, 2 days
Method: as §1

[3] = Entamoeba histolytica, read-out: Cytotoxicity against Entamoeba histolytica IC50, Cys (+)
[4] = Entamoeba histolytica, read-out: Cytotoxicity against Entamoeba histolytica IC50, Cys (–)
[5] = recombinant EhCS3, 15 min at 37°C, 2 mM O-acetyl-L-serine, 2 mM Na2S, read-out: IC50 CS3
[6] = recombinant EhCS1, 15 min at 37°C, 2 mM O-acetyl-L-serine, 2 mM Na2S, read-out: IC50 CS1

EhCS1, sequence (O15570 entry or part of it): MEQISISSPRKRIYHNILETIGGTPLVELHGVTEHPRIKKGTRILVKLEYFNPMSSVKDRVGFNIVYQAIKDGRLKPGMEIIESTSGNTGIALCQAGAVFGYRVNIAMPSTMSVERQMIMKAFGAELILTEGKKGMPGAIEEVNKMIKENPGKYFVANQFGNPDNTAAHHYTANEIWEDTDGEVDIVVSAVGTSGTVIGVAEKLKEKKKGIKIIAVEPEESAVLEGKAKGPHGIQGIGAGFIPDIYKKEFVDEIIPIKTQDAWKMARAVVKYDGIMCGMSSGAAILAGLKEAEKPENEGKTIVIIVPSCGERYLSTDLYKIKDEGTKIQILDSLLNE
EhCS3, sequence (Q401L7 entry or part of it): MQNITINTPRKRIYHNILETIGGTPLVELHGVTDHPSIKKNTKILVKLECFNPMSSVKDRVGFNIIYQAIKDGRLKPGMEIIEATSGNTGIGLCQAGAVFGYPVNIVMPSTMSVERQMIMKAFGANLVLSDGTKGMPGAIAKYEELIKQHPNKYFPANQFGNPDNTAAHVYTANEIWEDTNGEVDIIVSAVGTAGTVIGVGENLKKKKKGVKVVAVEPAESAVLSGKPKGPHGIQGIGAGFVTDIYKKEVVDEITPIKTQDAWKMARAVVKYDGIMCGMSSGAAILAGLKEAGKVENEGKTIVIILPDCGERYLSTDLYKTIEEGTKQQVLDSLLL

| Compound | IC50 (EhCS3; [5]) [µM] | IC50 (EhCS1; [6]) [µM] | IC50 [2, 3] [µM] | IC50 [2, 4] [µM] | IC50 at 2 days [1] [µM] | also measured |
| --- | --- | --- | --- | --- | --- | --- |
| C[C@@]1(O)[C@H](O)c2c(c3c(=O)c4cccc(O)c4c(=O)c=3c2=[N+]=[N-])[C@H](O)[C@H]1O [Deacetylkinamycin C] | – | – | 140 ± 13 | 18 ± 10 | – | IC50 [1]: 2.3 ± 0.1 µM; IC50 (EhCS3): 22 ± 3.7 µM; IC50 (EhCS1): 21 ± 2.4 µM |
| C[C@@H]1O[C@@H](CC(=O)O)CC2=C1C(=O)c1c(O)cccc1C2=O [Nanaomycin A] | 65 ± 4.4 | 53 ± 3.9 | 12 ± 0.4 | 0.8 ± 0.04 | 0.7 ± 0.04 | – |
| CC(=O)c1c(C)c(/C(O)=C2\COc3cc(O)c(O)c(C(=O)O)c3C2=O)cc2c(=O)c3c(C(=O)O)c(O)c(O)cc3oc12 [Xanthofulvin] | 110 ± 8.2 | 7.9 ± 1.3 | > 170 | > 170 | – | semaphorin inhibitor IC50 (semaphorin): 0.09 µg/mL |
| CCC[C@H]1O[C@H](CC(=O)O)CC2=C1C(=O)c1c(O)cccc1C2=O [Deoxyfrenolicin] | 53 ± 1.1 | 57 ± 2 | 1.3 ± 0.04 | 0.5 ± 0.1 | 4.7 ± 0.2 | – |
| CN(C)[C@@H]1C(O)=C(C(N)=O)C(=O)[C@@]2(O)C(O)=C3C(=O)c4c(O)cccc4[C@@](C)(O)[C@H]3C[C@@H]12 [Tetracycline, reference compound] | – | – | – | – | 430 ± 4.3 | IC50 (EhCS3): 190 ± 9.5 µM; IC50 (EhCS1): 170 ± 16 µM |
| Cc1c(O)cc2c(c1O)CO[C@@]1(CCCO1)C2=O [Terreinol] | > 1600 | > 1600 | – | – | – | – |
| Kerriamycin B | 0.31 ± 0.01 | 0.63 ± 0.07 | – | – | – | IC50 (MRC-5 cells): 21 ± 0.4 µM; IC50 ([2]; read-out: Cytotoxicity against Entamoeba histolytica IC50, Cys (+), BI-S-33 medium with cysteine, anaerobic): 26 ± 1.5 µM; IC50 ([2]; read-out: Cytotoxicity against Entamoeba histolytica IC50, Cys (–), cysteine-deprived BI-S-33 medium, anaerobic): 23 ± 0.3 µM |
| O=C1C=C2C(=CCOC2O)O1 (centres unmarked) [Patulin] | – | – | > 650 | 110 ± 12 | 110 ± 4.6 | IC50 (EhCS3): 470 ± 37 µM; IC50 (EhCS1): 490 ± 81 µM |

The next lines start with results.

| IC50 (EhCS3; [5]) [µM] | IC50 (EhCS1; [6]) [µM] | Compound | IC50 [2, 3] [µM] | IC50 [2, 4] [µM] | IC50 at 2 days [1] [µM] | also measured |
| --- | --- | --- | --- | --- | --- | --- |
| > 1400 | > 1400 | Cc1cc(=O)c2c(o1)-c1c(cc(O)c(O)c1C(=O)O)OC2 [Citromycetin] | – | – | – | – |
| 0.64 ± 0.1 | 0.98 ± 0.05 | C[C@@H]1O[C@@H](O[C@@H]2C[C@H](c3ccc4c(c3O)C(=O)C3=C(C4=O)[C@@]4(O[C@H]5CC[C@H](O)[C@H](C)O5)C(=O)C[C@](C)(O)C[C@@]4(O)C=C3)O[C@H](C)[C@H]2O)CC[C@@H]1O [Aggreticin] | 54 ± 4.8 | 18 ± 0.7 | 23 ± 0.6 | – |
| – | 24 ± 2.9 | CCCCCCCCCc1cc(OC(=O)c2c(CCCCCCCCC)cc(O)cc2O[C@@H]2O[C@H](CO)[C@@H](O)[C@H](O)[C@H]2O)cc(O)c1C(=O)O [Exophillic acid] | > 140 | > 140 | > 100 | inhibition against EhCS3 (EhCS3): no inhibition |
| > 490 | 75 ± 1.8 | COc1cc(C)c(-c2cc(OC)cc3c2C(=O)C2=C(C3=O)C(C)(C)c3cc(O)cc(O)c3C2=O)c(OC)c1 [Naphthacemycin A9] | > 390 | > 390 | 16 ± 0.6 | inhibition of EhCS3 (in words) (EhCS3): no inhibition |
